Experimental data: ChEMBL document CHEMBL3991601, “The target landscape of clinical kinase drugs” (Science, 2017)
The source made the active and inactive calls. Cut-off read from the data, not from the text of the source, for most assays here: actives have a measured Kd and inactives only a lower limit.

Columns and labels:
[1] = target: Cyclin-dependent kinase 17 (Homo sapiens, UniProt Q00537)
[2] = target: T1, Cyclin-G-associated kinase (Homo sapiens, UniProt O14976)
T1 sequence (O14976 whole entry): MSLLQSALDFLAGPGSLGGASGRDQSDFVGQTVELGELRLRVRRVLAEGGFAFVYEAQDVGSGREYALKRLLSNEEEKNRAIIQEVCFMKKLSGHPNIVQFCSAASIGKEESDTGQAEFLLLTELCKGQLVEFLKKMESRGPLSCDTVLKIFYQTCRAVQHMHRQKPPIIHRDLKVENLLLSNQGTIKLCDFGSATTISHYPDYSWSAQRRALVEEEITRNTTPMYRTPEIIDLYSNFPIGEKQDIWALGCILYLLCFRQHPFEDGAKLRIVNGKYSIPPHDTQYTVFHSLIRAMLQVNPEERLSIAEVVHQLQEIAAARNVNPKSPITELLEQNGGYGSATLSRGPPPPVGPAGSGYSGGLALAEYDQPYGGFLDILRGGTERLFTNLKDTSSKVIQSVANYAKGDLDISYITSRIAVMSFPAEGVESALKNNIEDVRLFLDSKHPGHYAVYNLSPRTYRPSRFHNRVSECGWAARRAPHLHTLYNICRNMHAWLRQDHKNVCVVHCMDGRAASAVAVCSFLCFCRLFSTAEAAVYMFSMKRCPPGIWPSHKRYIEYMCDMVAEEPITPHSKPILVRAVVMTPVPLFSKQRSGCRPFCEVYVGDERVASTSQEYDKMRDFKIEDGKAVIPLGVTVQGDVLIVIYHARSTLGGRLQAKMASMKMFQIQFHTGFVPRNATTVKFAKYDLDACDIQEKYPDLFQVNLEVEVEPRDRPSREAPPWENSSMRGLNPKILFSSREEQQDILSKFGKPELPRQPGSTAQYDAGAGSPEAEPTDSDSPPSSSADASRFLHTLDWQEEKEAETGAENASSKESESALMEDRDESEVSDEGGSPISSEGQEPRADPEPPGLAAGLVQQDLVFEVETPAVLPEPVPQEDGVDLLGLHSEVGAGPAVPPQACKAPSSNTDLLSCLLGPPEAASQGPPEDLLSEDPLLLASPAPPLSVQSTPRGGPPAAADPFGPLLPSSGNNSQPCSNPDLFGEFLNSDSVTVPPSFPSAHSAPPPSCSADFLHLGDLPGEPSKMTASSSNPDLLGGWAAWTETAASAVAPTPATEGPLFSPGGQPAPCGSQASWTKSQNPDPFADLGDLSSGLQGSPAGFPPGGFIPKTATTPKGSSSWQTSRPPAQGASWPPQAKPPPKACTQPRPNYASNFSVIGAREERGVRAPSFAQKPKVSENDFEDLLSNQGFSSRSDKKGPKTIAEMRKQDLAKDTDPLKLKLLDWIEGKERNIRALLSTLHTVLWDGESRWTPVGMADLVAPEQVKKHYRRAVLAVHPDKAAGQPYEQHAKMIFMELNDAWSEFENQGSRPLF

[3] = target: T2, MAP kinase-activated protein kinase 5 (Homo sapiens, UniProt Q8IW41)
T2 sequence (Q8IW41 whole entry): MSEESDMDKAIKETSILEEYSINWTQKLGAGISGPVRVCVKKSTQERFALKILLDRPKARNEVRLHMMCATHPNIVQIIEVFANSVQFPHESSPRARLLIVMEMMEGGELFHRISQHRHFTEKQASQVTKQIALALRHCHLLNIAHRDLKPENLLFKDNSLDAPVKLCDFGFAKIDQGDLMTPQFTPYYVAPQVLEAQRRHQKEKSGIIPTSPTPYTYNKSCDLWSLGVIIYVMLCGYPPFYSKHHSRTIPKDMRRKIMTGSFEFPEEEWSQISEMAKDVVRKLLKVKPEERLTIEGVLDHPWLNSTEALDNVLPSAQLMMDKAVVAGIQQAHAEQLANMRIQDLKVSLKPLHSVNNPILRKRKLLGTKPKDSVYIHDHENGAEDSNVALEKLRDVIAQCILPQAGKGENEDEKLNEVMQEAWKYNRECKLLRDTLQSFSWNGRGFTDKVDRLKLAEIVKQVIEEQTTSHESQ

[4] = target: Myosin-14 (Homo sapiens, UniProt Q7Z406)
Myosin-14, sequence (Q7Z406 whole entry): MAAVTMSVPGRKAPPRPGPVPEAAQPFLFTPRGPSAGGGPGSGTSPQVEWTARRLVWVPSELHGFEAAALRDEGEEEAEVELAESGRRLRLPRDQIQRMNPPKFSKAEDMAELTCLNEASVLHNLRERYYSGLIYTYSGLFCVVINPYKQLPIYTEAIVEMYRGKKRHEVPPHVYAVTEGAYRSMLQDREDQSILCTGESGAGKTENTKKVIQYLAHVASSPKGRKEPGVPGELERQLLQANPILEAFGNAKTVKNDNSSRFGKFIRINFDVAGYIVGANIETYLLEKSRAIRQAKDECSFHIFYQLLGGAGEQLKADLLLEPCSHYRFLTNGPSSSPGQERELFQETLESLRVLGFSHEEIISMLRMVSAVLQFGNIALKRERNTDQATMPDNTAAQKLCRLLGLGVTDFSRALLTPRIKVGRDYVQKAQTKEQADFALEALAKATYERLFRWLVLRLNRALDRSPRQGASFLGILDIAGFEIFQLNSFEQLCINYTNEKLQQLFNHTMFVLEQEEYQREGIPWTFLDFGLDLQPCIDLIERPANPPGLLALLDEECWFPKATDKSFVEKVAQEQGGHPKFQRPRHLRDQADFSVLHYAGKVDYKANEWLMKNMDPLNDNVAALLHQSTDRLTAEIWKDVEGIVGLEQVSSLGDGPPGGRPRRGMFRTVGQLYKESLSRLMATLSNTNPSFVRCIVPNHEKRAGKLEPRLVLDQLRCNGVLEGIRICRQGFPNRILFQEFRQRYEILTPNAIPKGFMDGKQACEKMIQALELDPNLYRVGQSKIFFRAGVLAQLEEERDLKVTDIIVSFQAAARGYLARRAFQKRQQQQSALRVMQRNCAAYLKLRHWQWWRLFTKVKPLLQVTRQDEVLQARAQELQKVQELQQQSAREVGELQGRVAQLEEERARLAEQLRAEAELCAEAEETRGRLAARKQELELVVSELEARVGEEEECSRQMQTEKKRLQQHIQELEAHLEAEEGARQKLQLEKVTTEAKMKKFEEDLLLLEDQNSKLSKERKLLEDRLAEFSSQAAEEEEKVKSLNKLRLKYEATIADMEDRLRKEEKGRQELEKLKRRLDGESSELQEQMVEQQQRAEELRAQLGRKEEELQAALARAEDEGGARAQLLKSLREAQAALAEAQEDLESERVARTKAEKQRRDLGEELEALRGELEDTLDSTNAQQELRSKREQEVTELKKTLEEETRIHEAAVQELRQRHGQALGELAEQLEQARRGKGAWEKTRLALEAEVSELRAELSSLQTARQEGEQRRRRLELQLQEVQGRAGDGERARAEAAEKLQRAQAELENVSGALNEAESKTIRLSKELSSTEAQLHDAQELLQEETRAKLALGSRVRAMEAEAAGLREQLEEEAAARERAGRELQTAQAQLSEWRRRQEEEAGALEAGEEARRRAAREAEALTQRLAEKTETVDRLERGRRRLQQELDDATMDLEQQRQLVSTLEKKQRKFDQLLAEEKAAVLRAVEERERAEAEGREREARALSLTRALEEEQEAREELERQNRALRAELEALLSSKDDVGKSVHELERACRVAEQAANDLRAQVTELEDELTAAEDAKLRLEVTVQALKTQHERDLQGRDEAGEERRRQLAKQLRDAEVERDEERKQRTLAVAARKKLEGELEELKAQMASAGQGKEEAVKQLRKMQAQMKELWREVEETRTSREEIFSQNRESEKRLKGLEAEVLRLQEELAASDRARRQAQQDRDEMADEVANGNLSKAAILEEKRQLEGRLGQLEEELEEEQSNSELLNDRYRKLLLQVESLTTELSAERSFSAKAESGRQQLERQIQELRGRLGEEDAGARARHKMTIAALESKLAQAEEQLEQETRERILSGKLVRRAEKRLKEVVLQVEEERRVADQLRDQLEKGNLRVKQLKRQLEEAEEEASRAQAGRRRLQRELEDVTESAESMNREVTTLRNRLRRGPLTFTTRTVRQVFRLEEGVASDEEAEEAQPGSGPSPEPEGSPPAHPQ

[5] = target: T3, Ribosyldihydronicotinamide dehydrogenase [quinone] (Homo sapiens, UniProt P16083)
T3 sequence (P16083 whole entry): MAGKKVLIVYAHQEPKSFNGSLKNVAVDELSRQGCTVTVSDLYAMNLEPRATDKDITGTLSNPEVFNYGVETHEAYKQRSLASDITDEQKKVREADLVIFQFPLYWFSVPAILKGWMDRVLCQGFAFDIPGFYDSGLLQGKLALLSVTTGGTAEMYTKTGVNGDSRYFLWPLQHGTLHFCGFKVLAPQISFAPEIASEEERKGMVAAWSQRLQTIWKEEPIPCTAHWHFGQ

[6] = target: T4, Pyridoxal kinase (Homo sapiens, UniProt O00764)
T4 sequence (O00764 whole entry): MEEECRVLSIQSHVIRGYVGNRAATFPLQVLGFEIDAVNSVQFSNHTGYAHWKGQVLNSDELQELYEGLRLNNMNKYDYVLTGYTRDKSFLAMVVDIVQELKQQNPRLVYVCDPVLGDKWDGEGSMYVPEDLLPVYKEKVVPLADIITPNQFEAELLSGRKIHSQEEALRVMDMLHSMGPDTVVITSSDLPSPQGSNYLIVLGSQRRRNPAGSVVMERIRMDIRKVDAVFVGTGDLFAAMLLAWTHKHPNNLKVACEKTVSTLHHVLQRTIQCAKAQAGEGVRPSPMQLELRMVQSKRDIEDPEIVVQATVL

[7] = target: T5, Phosphatidylinositol 5-phosphate 4-kinase type-2 gamma (Homo sapiens, UniProt Q8TBX8)
T5 sequence (Q8TBX8 whole entry): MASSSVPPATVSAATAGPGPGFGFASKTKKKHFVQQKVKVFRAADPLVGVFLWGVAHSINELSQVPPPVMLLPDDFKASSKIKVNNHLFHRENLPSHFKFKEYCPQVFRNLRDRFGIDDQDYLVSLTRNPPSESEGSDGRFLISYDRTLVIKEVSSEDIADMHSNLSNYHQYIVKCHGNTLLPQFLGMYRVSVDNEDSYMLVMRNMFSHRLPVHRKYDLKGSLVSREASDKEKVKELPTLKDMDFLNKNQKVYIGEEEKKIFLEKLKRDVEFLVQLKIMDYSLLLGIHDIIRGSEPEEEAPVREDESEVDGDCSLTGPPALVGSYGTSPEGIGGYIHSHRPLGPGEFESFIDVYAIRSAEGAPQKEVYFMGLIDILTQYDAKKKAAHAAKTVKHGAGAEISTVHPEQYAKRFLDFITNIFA

[8] = target: Protein-tyrosine kinase 6 (Homo sapiens, UniProt Q13882)
Protein-tyrosine kinase 6, sequence (Q13882 whole entry): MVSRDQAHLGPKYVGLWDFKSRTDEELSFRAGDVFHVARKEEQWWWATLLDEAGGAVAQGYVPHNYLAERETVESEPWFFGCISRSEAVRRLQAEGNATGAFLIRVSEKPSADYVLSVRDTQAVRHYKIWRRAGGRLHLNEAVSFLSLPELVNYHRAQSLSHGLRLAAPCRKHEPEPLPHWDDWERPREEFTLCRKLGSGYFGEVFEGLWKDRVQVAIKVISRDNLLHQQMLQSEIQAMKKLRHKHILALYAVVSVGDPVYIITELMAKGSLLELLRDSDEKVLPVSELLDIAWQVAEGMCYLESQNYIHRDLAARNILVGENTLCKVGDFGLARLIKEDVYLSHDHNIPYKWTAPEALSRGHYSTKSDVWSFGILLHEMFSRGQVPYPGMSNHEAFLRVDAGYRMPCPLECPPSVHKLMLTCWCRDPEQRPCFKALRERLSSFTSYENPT
Note: in the data inactive means no Kd found up to 30 µM.

Cyclin-dependent kinase 17, sequence (Q00537 whole entry): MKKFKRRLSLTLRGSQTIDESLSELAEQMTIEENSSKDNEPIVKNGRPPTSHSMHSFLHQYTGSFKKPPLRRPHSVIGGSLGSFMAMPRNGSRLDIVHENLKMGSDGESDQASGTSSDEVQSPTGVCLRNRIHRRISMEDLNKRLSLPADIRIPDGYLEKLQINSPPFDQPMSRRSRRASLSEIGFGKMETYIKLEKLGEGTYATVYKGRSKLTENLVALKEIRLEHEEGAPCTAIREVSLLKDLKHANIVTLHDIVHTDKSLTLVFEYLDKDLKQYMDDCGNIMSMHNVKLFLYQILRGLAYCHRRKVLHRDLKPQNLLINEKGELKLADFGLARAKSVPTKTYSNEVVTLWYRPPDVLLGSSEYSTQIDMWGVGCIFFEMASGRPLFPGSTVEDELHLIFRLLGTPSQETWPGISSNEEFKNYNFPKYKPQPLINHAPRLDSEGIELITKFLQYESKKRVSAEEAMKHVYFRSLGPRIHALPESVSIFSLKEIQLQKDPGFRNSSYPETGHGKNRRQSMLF

Compound | Kd [1] | Kd [2] | Kd [3] | Kd [4] | Kd [5] | Kd [6] | Kd [7] | Kd [8]
Cc1cc(Nc2ncnc3ccc(NC4=NC(C)(C)CO4)cc23)ccc1Oc1ccn2ncnc2c1 [TUCATINIB] | > 30 µM (inactive) | > 30 µM (inactive) | > 30 µM (inactive) | 0.188 µM | 2.46 µM (active) | > 30 µM (inactive) | > 30 µM (inactive) | > 30 µM (inactive)
CCS(=O)(=O)c1cccc(-c2cc(C(=O)NC3CCN(C)CC3)c(C)c3[nH]c4ncc(C)cc4c23)c1 [TAK-901] | > 30 µM (inactive) | > 30 µM (inactive) | > 30 µM (inactive) | > 30 µM (inactive) | 88.9 µM (active) | > 30 µM (inactive) | > 30 µM (inactive) | 0.18 µM (active)
O=C(Cc1ccc(-c2ccc(OCCN3CCOCC3)cc2)cn1)NCc1ccccc1 [TIRBANIBULIN] | > 30 µM (inactive) | > 30 µM (inactive) | > 30 µM (inactive) | > 30 µM (inactive) | > 30 µM (inactive) | > 30 µM (inactive) | > 30 µM (inactive) | > 30 µM (inactive)
COc1cc2ncnc(Oc3cccc(NC(=O)Nc4cc(C(C)(C)C(F)(F)F)on4)c3)c2cc1OC [CEP-32496] | > 30 µM (inactive) | > 30 µM (inactive) | > 30 µM (inactive) | > 30 µM (inactive) | > 30 µM (inactive) | > 30 µM (inactive) | > 30 µM (inactive) | > 30 µM (inactive)
Cc1cc(C(=O)NOCCO)c(Nc2ccc(I)cc2F)n(C)c1=O [AZD-8330] | > 30 µM (inactive) | > 30 µM (inactive) | > 30 µM (inactive) | > 30 µM (inactive) | > 30 µM (inactive) | > 30 µM (inactive) | > 30 µM (inactive) | > 30 µM (inactive)
C#Cc1cccc(Nc2ncnc3cc(OC)c(OCCCCCCC(=O)NO)cc23)c1 [CUDC-101] | > 30 µM (inactive) | 0.482 µM (active) | > 30 µM (inactive) | > 30 µM (inactive) | > 30 µM (inactive) | > 30 µM (inactive) | > 30 µM (inactive) | > 30 µM (inactive)
NC1(c2ccc(-c3nc4ccn5c(=O)[nH]nc5c4cc3-c3ccccc3)cc2)CCC1 [MK-2206] | > 30 µM (inactive) | > 30 µM (inactive) | > 30 µM (inactive) | > 30 µM (inactive) | > 30 µM (inactive) | > 30 µM (inactive) | > 30 µM (inactive) | > 30 µM (inactive)
Cc1nc2cc(-c3nn(C(C)C)c4ncnc(N)c34)ccc2o1 | > 30 µM (inactive) | > 30 µM (inactive) | > 30 µM (inactive) | > 30 µM (inactive) | > 30 µM (inactive) | > 30 µM (inactive) | > 30 µM (inactive) | 2.1 µM (active)
O=C1NC(=O)[C@@H](c2cn3c4c(cccc24)CCC3)[C@@H]1c1c[nH]c2ccccc12 [TIVANTINIB] | > 30 µM (inactive) | > 30 µM (inactive) | > 30 µM (inactive) | > 30 µM (inactive) | > 30 µM (inactive) | > 30 µM (inactive) | > 30 µM (inactive) | > 30 µM (inactive)
CO[C@H]1C[C@@H]2CC[C@@H](C)[C@@](O)(O2)C(=O)C(=O)N2CCCC[C@H]2C(=O)O[C@H]([C@H](C)C[C@@H]2CC[C@@H](OP(C)(C)=O)[C@H](OC)C2)CC(=O)[C@H](C)/C=C(\C)[C@@H](O)[C@@H](OC)C(=O)[C@H](C)C[C@H](C)/C=C/C=C/C=C/1C [RIDAFOROLIMUS] | > 30 µM (inactive) | > 30 µM (inactive) | > 30 µM (inactive) | > 30 µM (inactive) | > 30 µM (inactive) | > 30 µM (inactive) | > 30 µM (inactive) | > 30 µM (inactive)
COCC(=O)NC/C=C/c1ccc2ncnc(Nc3ccc(Oc4ccc(C)nc4)c(C)c3)c2c1 [CP-724714] | > 30 µM (inactive) | > 30 µM (inactive) | > 30 µM (inactive) | > 30 µM (inactive) | > 30 µM (inactive) | > 30 µM (inactive) | > 30 µM (inactive) | > 30 µM (inactive)
CCCCCCCCCCCCCCCCCCOP(=O)([O-])OC1CC[N+](C)(C)CC1 [PERIFOSINE] | > 30 µM (inactive) | > 30 µM (inactive) | > 30 µM (inactive) | > 30 µM (inactive) | > 30 µM (inactive) | > 30 µM (inactive) | > 30 µM (inactive) | > 30 µM (inactive)
COc1ncc(-c2ccc3nccc(-c4ccnnc4)c3c2)cc1NS(=O)(=O)c1ccc(F)cc1F [OMIPALISIB] | > 30 µM (inactive) | > 30 µM (inactive) | > 30 µM (inactive) | > 30 µM (inactive) | > 30 µM (inactive) | > 30 µM (inactive) | 1.37 µM (active) | > 30 µM (inactive)
Cc1cnc(NC(=O)Nc2cc(Br)c(C)cc2OC[C@@H]2CNCCO2)cn1 [RABUSERTIB] | > 30 µM (inactive) | > 30 µM (inactive) | > 30 µM (inactive) | > 30 µM (inactive) | > 30 µM (inactive) | > 30 µM (inactive) | > 30 µM (inactive) | > 30 µM (inactive)
Cc1cccc(-c2nn3c(c2-c2ccnc4ccc(C(N)=O)cc24)CCC3)n1 [GALUNISERTIB] | > 30 µM (inactive) | 0.495 µM (active) | > 30 µM (inactive) | > 30 µM (inactive) | > 30 µM (inactive) | > 30 µM (inactive) | > 30 µM (inactive) | > 30 µM (inactive)
O=C(Nc1nc2cccc(-c3ccc(CN4CCS(=O)(=O)CC4)cc3)n2n1)C1CC1 [FILGOTINIB] | > 30 µM (inactive) | > 30 µM (inactive) | > 30 µM (inactive) | > 30 µM (inactive) | > 30 µM (inactive) | > 30 µM (inactive) | > 30 µM (inactive) | > 30 µM (inactive)
